Assay results taken from US4271161A, “Indane-acetic acid aminoesters, their preparation and their use in therapy” (Hexachimie, priority 1978, dated 1981).

Experiments:
[1] = tested on: pain reactions (abdominal writhing) induced by phenylbenzoquinone; test: phenylbenzoquinone-induced writhing in mice (analgesic action); format: in vivo, male mice (SPF, strain OF1); conditions: for percentage inhibition of pain reactions (abdominal writhing): phenylbenzoquinone i.p. after one hour; for ED50: Mus musculus, po, inhibition of phenylbenzoquinone writhing
Method: The products being tested are administered orally (p.o.) to batches of 12 male mice (SPF, strain OF1), weighing 19-20 g. After one hour, 0.3 ml/mouse of a 0.02% strength solution of phenylbenzoquinone is injected intraperitoneally and the number of pain reactions (abdominal writhing) is counted from the 5th to the 10th minute after the latter treatment. The table below gives the percentage inhibition of these reactions.

[2] = tested on: mice; test: toxicity: mortality after intraperitoneal administration in mice; format: in vivo
Source text: In mice, no mortality was observed after intraperitoneal administration up to doses of: […]

SMILES: CCC1Cc2ccc(C(C)C(=O)OCCN3CCN(c4cccc(C(F)(F)F)c4)CC3)cc2C1 (stereo not drawn) [2 or 5]
- percentage inhibition of pain reactions (abdominal writhing) ([1]; 1 mg.kg^-1 p.o.): 22%
- percentage inhibition of pain reactions (abdominal writhing) ([1]; 2 mg.kg^-1 p.o.): 47%
- percentage inhibition of pain reactions (abdominal writhing) ([1]; 4 mg.kg^-1 p.o.): 59%
- percentage inhibition of pain reactions (abdominal writhing) ([1]; 8 mg.kg^-1 p.o.): 64%
- percentage inhibition of pain reactions (abdominal writhing) ([1]; 16 mg.kg^-1 p.o.): 65%
- percentage inhibition of pain reactions (abdominal writhing) ([1]; 32 mg.kg^-1 p.o.): 82%
- ED50 [1]: 4 mg/kg
- dose up to which no mortality was observed [2]: 512 mg/kg

SMILES: CC(C(=O)OCCN1CCN(c2cccc(C(F)(F)F)c2)CC1)c1ccc2c(c1)CC(C(C)C)C2 (stereo not drawn) [4 or 6]
- percentage inhibition of pain reactions (abdominal writhing) ([1]; 8 mg.kg^-1 p.o.): 23%
- percentage inhibition of pain reactions (abdominal writhing) ([1]; 16 mg.kg^-1 p.o.): 40%
- percentage inhibition of pain reactions (abdominal writhing) ([1]; 32 mg.kg^-1 p.o.): 67%
- percentage inhibition of pain reactions (abdominal writhing) ([1]; 64 mg.kg^-1 p.o.): 75%
- percentage inhibition of pain reactions (abdominal writhing) ([1]; 128 mg.kg^-1 p.o.): 75%
- ED50 [1]: 25 mg/kg
- dose up to which no mortality was observed [2]: 256 mg/kg
